Active and inactive are the calls of the source.

The values below come from ChEMBL document CHEMBL1201862, “PubChem BioAssay data set” (2004).

In assay [1] the target is Beta-galactosidase (Escherichia coli, UniProt Q8VNN2). The assay is classed as functional.
Assay [2] deals with T1, Delta-type opioid receptor (Homo sapiens, UniProt P41143). Briefly: HTS Image-Based Screen for Agonists of the DOR Receptor. [Related pubchem assays (depositor defined):AID1777, AID1786, AID2133]. The format is functional.
T1 sequence (P41143 whole entry): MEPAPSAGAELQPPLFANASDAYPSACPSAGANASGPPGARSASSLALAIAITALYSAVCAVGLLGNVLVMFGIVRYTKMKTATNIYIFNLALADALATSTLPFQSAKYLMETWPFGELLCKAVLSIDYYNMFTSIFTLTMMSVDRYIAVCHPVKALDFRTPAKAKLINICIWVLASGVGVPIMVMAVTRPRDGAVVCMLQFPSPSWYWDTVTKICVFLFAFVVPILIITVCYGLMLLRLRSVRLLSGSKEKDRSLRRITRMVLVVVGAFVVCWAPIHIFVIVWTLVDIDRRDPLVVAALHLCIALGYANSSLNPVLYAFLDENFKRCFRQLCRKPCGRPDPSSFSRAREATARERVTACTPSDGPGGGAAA
Assay [3] deals with T2, Mu-type opioid receptor (Homo sapiens, UniProt P35372). Briefly: HTS Image-Based Screen for Agonists of the MOR Receptor. [Related pubchem assays (depositor defined):AID1777, AID1785, AID1786, AID2133]. The format is functional.
T2 sequence (P35372 whole entry): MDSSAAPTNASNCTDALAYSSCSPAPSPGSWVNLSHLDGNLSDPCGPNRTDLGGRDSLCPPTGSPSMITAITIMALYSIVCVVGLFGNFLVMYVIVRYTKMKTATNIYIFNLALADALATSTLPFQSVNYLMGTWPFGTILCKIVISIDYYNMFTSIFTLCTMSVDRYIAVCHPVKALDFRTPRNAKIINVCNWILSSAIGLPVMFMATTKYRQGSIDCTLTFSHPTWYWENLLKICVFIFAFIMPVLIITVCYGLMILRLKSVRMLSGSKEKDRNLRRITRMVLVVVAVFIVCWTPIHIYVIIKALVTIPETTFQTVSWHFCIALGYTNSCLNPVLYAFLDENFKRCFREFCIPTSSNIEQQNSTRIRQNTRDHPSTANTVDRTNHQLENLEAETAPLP
In assay [4] the target is T3, Kappa-type opioid receptor (Homo sapiens, UniProt P41145). The assay is classed as functional.
T3 sequence (P41145 whole entry): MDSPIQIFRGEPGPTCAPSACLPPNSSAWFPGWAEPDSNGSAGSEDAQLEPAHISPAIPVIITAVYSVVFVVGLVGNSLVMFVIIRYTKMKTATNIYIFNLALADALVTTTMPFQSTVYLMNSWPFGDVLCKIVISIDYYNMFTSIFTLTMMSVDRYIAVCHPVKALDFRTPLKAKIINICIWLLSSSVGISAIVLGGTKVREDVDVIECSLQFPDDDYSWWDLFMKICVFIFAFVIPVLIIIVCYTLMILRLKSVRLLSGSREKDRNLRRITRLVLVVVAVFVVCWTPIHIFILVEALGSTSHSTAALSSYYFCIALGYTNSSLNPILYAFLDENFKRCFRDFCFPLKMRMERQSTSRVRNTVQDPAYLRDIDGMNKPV
Assay [5] addresses T3, Kappa-type opioid receptor. The assay is classed as functional. The source holds these as a separate data set.
Assay [6] has as its target T1, Delta-type opioid receptor. In words: HTS Image-Based Screen for Antagonists of the DOR Receptor. [Related pubchem assays (depositor defined):AID1777, AID1785, AID1786, AID2133]. The format is functional.
Assay [7] has as its target T4, Corticotropin-releasing factor receptor 2/Corticotropin-releasing factor-binding protein (Homo sapiens, UniProt P24387+Q13324).
T4 sequence (Q13324 whole entry): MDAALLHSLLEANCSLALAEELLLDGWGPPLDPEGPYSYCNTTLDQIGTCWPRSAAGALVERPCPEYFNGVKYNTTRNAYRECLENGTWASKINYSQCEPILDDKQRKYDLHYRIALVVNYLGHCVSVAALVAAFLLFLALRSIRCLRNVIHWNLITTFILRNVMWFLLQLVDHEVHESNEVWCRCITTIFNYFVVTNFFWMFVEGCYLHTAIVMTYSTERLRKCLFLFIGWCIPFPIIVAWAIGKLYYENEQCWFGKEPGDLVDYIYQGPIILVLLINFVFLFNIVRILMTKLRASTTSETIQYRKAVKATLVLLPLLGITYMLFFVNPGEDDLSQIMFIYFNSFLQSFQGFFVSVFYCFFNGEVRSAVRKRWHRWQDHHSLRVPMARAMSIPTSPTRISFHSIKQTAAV
T4 sequence (P24387 whole entry): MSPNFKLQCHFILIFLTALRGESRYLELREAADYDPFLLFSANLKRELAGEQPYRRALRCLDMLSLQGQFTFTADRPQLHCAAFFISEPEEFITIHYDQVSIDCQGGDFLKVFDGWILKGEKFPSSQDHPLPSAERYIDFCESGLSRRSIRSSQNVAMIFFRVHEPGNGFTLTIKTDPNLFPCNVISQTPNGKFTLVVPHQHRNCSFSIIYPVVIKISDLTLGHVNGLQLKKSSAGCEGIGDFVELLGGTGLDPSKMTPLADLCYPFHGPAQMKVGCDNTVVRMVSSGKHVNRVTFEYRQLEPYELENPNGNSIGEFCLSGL
In words: Dose Response confirmation of uHTS hits for small molecule antagonists of the CRF-binding protein and CRF-R2 receptor complex. The assay is classed as functional. As to conditions: read-out: IC50_Mean.

Assay [8] deals with T5, Heat shock factor protein 1 (Mus musculus, UniProt P38532).
T5 sequence (P38532 whole entry): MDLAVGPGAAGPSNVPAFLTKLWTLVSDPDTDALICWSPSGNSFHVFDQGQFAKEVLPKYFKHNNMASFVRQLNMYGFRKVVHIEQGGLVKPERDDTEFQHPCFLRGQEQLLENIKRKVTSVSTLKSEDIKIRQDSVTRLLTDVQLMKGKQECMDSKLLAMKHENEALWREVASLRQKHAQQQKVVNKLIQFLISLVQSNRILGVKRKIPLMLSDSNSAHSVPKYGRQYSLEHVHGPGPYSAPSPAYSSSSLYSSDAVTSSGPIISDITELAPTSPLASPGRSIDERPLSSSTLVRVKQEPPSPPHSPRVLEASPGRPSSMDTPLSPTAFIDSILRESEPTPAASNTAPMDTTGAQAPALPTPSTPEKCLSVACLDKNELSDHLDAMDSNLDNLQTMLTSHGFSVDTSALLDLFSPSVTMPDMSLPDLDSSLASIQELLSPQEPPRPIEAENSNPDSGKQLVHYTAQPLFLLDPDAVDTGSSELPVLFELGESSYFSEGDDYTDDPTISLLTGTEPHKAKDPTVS
In words: inhibition of MG132-induced HSE-luciferase signal, confirmation, cell-based, NIH3T3, luminescence, dose retest (AID 2382).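 Further: NIH3T3 fibroblasts with HSF1-driven luciferase reporter stressed by proteasome inhibitor MG132; luminescence from HSF1-driven luciferase expression after 8 hours of MG132 stress.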 The assay is classed as functional.

Assay [9] is described as follows: CRF-BP/CRF-R2 complex antagonists, dose response, cell-based, uHTS hits, 384-well (AID 651639). As to conditions: read-out: IC50_Mean. The assay is classed as functional, Homo sapiens.
Assay [10] concerns the target T4, Corticotropin-releasing factor receptor 2/Corticotropin-releasing factor-binding protein. In words: activators of CRF receptor 2 with binding protein – uHTS hits, confirmation (AID 602473). The assay is classed as functional. As to conditions: read-out: EC50_Mean.
Assay [11] can be described thus: inhibitors of Bluetongue virus cytopathic effect, confirmation, arbovirus, BSR cells (AID 1250).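 Further: protection from viral cytopathic effect measured as cell viability by ATP luminescence.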 The format is functional. Background: Protection from cytopathic effect is a common read-out in antiviral testing.
A short description of assay [12]: cytotoxicity in HMLE control line with eGFP shRNA, dose response, counter-screen for HMLE_sh_ECad selective toxicity project, cell-based, HMLE_sh_eGFP, luminescence (AID 463074).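 Further: HMLE human mammary epithelial cells expressing control shRNA against eGFP.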 The format is functional, Homo sapiens. On the technique in general: The purpose of a counterscreen is to sort out artefacts and off-target activity.
A short description of assay [13]: Luminescence Cell-Based Dose Retest to Confirm Inhibitors of Cancer Stem Cells. [Related pubchem assays (depositor defined):AID2717, AID2721]. The format is functional. The note with it: Homo sapiens.
Assay [14] deals with HEK293. In words: cells. The format is functional, cell-based. The note with it: Homo sapiens.
For assay [15], the system named is HEK293. Briefly: cells. The format is functional, cell-based. As to conditions: Homo sapiens. The source holds these as a separate data set.
Assay [16] deals with HEK293. In words: cells. As to conditions: Homo sapiens.
Assay [17] addresses Tumor necrosis factor (Homo sapiens, UniProt P01375). Briefly: TNFa-triggered NF-kB activation inhibitors, SAR follow-up, cell-based, revised (AID 2337). The assay is classed as functional.
In assay [18] the test system is HEK293. In words: NOD1 signaling inhibitors, primary screen, cell-based, luminescence, uHTS (AID 1578). The format is functional. The note with it: Homo sapiens.
Assay [19] relates to HEK293. Briefly: cells. The assay is classed as functional, cell-based. As to conditions: Homo sapiens. The source holds these as a separate data set.
The target of assay [20] is Nucleotide-binding oligomerization domain-containing protein 2 (Homo sapiens, UniProt Q9HC29). In words: NOD2 signaling inhibitors, cell-based, luminescence, uHTS, HEK293 (AID 1566). The format is functional.
Sequence of Nucleotide-binding oligomerization domain-containing protein 2 (Q9HC29 whole entry, the tested form may be a part): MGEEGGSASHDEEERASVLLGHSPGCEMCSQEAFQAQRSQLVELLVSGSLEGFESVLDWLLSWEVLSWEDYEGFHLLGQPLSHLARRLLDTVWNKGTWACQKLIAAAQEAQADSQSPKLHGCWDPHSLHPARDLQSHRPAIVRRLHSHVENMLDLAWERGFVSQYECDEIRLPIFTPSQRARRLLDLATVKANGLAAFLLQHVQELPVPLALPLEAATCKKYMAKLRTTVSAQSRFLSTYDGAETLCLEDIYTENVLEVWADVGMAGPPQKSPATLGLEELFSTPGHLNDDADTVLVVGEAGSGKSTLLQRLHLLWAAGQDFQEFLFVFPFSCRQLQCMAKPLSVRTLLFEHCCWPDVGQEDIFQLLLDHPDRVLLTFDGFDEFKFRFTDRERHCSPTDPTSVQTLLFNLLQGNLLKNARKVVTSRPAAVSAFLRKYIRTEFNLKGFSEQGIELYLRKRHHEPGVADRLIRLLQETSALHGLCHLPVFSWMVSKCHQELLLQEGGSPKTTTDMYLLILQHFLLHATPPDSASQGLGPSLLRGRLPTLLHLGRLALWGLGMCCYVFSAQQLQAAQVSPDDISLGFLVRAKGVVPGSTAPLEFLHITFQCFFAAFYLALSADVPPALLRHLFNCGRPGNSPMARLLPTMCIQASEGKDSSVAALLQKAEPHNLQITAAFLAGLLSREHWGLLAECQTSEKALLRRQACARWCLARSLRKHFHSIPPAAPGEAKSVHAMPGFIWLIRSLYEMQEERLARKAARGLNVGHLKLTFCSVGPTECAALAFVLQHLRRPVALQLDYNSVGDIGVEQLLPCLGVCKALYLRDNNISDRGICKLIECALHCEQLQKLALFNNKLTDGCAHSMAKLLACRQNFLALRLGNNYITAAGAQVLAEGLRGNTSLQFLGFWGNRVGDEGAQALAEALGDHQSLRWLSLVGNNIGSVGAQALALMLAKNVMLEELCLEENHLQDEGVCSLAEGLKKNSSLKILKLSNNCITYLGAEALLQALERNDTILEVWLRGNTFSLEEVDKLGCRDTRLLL
The test system of assay [21] is HEK293. In words: NOD2 signaling inhibitors in MDP-stimulated cells, cell-based, uHTS, luminescence (AID 2001). The assay is classed as functional. As to conditions: Homo sapiens.
Assay [22] addresses Nucleotide-binding oligomerization domain-containing protein 1 (Homo sapiens, UniProt Q9Y239). In words: NOD1 signaling inhibitors, SAR follow-up, revised (AID 2333). The format is functional.
For assay [23], the target named is UDP-galactopyranose mutase (Mycobacterium tuberculosis, UniProt P9WIQ1). In words: Inhibitors of Mycobacterium tuberculosis UDP-galactopyranose mutase (UGM) enzyme Measured in Biochemical System Using Plate Reader - 2105-02_Inhibitor_Dose_CherryPick_Activity. [Related pubchem assays (depositor defined):AID504439].
Sequence of UDP-galactopyranose mutase (P9WIQ1 whole entry): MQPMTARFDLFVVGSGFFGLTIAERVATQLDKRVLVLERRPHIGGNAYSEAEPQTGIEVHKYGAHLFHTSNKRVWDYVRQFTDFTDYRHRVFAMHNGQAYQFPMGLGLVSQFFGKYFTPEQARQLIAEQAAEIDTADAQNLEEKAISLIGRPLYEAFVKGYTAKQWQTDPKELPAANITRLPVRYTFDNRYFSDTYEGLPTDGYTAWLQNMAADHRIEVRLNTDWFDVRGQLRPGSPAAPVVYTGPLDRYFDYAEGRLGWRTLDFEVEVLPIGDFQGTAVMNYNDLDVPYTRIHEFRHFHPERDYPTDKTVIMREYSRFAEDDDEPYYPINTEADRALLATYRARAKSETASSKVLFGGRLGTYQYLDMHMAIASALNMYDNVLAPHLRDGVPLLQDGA
Assay [24] addresses T6, Intestinal-type alkaline phosphatase (Homo sapiens, UniProt P09923). Briefly: human intestinal alkaline phosphatase activators, dose response, biochemical, luminescence, uHTS hits (AID 463120). The format is functional.
Assay [25] addresses T7, Alkaline phosphatase, tissue-nonspecific isozyme (Homo sapiens, UniProt P05186).
T7 sequence (P05186 whole entry): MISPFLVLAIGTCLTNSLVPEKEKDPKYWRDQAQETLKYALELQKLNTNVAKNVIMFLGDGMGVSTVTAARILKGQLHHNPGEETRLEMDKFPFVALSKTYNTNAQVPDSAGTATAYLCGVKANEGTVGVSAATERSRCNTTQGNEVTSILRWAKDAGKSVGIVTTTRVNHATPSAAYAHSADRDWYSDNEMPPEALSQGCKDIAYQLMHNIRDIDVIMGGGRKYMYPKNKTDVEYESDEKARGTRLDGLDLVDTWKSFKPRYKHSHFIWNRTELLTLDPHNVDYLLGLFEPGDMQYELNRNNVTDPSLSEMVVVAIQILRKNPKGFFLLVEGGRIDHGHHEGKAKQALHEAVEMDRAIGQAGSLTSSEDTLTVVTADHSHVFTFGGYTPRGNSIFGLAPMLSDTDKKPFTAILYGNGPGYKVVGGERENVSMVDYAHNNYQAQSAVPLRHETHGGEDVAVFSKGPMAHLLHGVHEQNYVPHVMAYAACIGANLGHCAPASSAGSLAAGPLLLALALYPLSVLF
Briefly: TNAP enzyme activators, dose response, selectivity assay for human IAP activator project, biochemical, TNAP isozyme, human IAP uHTS hits (AID 488886).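 Further: potency of compounds raising TNAP activity as a selectivity check on IAP activators.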 The assay is classed as functional.

Assay [26] concerns the target T6, Intestinal-type alkaline phosphatase. Briefly: human IAP activators, dose response, biochemical, luminescent, uHTS hits, set 2 (AID 488817).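 Further: potency of activators that raise enzyme activity.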 The format is functional.
Assay [27] has as its target Intestinal-type alkaline phosphatase (Mus musculus, UniProt P24822). Briefly: PubChem AID 488874. The assay is classed as functional.
Assay [28] has as its target T2, Mu-type opioid receptor. Briefly: SAR Analysis of Antagonists of the MOR Receptor using an Image-Based Assay - Set 2. [Related pubchem assays (depositor defined):AID1777, AID1785, AID1786, AID1966, AID2133, AID2136, AID2284, AID2285, AID2420]. The format is functional.
Assay [29] deals with T2, Mu-type opioid receptor. In words: SAR Analysis of Agonists of the MOR Receptor using an Image-Based Assay - Set 2. [Related pubchem assays (depositor defined):AID1777, AID1785, AID1786, AID1966, AID2133, AID2136, AID2284, AID2285, AID2352]. The assay is classed as functional.
In assay [30] the target is T1, Delta-type opioid receptor. Briefly: SAR Analysis of Agonists of the DOR Receptor using an Image-Based Assay - Set 2. [Related pubchem assays (depositor defined):AID1777, AID1785, AID1786, AID1966, AID2133, AID2136, AID2284, AID2285, AID2370]. The format is functional.
Assay [31] concerns the target T1, Delta-type opioid receptor. Briefly: SAR Analysis of Antagonists of the DOR Receptor using an Image-Based Assay - Set 2. [Related pubchem assays (depositor defined):AID1777, AID1785, AID1786, AID1966, AID2133, AID2136, AID2284, AID2285, AID2357]. The assay is classed as functional.

T6 sequence (P09923 whole entry): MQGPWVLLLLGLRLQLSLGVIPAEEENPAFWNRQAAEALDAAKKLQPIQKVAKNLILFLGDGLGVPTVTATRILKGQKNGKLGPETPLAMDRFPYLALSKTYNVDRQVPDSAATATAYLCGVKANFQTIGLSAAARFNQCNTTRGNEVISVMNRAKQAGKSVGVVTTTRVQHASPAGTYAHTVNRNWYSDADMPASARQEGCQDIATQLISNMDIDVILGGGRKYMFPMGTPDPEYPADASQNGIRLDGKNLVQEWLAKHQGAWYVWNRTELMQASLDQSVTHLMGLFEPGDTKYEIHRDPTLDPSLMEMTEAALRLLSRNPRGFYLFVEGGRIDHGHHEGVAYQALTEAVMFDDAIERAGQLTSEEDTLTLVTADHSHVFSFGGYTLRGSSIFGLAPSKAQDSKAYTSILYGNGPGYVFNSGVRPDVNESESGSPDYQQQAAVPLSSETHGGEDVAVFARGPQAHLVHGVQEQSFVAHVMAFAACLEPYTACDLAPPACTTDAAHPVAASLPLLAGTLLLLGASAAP
Sequence of Beta-galactosidase (Q8VNN2 whole entry): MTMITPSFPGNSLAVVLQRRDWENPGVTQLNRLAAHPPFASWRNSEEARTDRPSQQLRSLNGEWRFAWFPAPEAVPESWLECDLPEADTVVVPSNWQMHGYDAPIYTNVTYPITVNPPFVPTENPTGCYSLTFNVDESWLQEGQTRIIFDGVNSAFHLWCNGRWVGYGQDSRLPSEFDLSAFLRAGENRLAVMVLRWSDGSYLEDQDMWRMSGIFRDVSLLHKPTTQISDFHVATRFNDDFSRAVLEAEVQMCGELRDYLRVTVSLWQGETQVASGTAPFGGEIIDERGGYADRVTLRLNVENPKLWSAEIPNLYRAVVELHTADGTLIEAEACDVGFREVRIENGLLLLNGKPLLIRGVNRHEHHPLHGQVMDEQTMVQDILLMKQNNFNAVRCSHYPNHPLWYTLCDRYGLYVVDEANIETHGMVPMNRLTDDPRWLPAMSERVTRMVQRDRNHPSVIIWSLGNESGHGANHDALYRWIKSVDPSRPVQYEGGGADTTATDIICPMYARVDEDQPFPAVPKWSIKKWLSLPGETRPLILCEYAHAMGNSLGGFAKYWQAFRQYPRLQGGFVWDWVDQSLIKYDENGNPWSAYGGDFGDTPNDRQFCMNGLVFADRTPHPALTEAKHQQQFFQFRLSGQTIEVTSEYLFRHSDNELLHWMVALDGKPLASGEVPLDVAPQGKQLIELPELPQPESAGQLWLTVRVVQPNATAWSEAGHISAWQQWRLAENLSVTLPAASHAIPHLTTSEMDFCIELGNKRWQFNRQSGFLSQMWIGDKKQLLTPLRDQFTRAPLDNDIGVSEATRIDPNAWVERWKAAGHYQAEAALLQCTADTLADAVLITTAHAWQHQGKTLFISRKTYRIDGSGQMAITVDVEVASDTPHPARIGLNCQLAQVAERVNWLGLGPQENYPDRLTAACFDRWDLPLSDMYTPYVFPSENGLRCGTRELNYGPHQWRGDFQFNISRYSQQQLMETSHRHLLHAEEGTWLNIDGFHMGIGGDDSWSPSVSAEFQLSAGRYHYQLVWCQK
Sequence of Intestinal-type alkaline phosphatase (Mus musculus, UniProt P24822) (P24822 whole entry): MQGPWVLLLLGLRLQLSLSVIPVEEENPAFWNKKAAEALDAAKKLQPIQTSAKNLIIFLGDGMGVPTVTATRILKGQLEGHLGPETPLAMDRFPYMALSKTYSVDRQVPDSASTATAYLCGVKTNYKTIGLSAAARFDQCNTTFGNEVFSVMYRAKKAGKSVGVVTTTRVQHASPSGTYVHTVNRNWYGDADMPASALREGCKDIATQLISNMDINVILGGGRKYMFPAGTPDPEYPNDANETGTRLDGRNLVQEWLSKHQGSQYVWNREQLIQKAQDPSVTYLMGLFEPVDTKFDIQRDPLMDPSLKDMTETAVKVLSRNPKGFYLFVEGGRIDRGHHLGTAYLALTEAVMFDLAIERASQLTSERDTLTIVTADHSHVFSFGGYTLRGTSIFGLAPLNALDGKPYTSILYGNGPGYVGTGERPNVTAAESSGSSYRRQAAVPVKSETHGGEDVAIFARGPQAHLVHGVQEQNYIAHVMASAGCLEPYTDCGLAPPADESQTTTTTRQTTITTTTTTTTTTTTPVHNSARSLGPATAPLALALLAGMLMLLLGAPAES
Sequence of Tumor necrosis factor (P01375 whole entry): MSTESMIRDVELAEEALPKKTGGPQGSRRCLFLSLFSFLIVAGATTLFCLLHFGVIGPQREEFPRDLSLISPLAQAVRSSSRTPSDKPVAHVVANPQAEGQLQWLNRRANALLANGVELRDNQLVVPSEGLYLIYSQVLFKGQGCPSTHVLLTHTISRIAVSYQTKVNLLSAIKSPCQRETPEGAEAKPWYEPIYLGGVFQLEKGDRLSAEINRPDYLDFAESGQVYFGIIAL

Regarding `CCCN(CCC)CC(O)Cn1cc(/C=C/C(=O)c2cccs2)c2ccccc21` (stereo unspecified), the EC50 in assay [1] is > 31.5 µM (inactive); in [2], > 32 µM (inactive); in assay [3], > 32 µM (inactive). Further, the values for the IC50 in [4], in assay [5] and in [6] were 4.14 µM, 11.3 µM (active) and > 32 µM (inactive), respectively.

What is called AC50 is the concentration giving half of the maximal activity seen. `CC(C)Cc1csc(NC(=O)c2ccc(F)cc2)c1C(=O)O`: the IC50 in [7] was 10.3 µM (active); in assay [9], > 20 µM (inactive); in assay [11], 36.3 µM (active). For the same compound, the EC50 in assay [8] was 9.87 µM (active); in assay [10], > 53 µM (inactive). In addition, the AC50 is 52.3 µM (active) in assay [12] and 25.9 µM (active) in assay [13].

`O=C(/C=C/c1cccs1)Nc1sc2c(c1C(=O)O)CCCC2`: the IC50 in assay [14], in assay [15], in assay [16], in [17], in assay [19] and in assay [21] was > 20 µM (inactive) throughout. Moreover, the IC50 in assay [22] was 6.42 µM (active). For the same compound, the results for the EC50 in [18] and in assay [20] were 8.28 µM (active) and > 20 µM (inactive), respectively.

`COCCCNC(=O)Cn1cc(/C=C2\C(=O)NC(=O)N(c3ccccc3F)C2=O)c2ccccc21`: the AC50 in assay [23] was 43.7 µM (active).

In the case of `CSCCC(NS(=O)(=O)c1ccccc1F)C(=O)NNC(=O)c1csc(N2CCOCC2)n1` (stereo unspecified), the EC50 in assay [24] is 8.88 µM (active); in assay [25] it was 26.4 µM (active); in assay [26], 10.6 µM (active). In addition, in assay [27], the IC50 is 70.1 µM (active).

For `Clc1ccc(CSc2nnc(-c3ccccn3)n2Cc2ccco2)cc1Cl`, the IC50 in [28] and in assay [31] was > 32 µM (inactive) each time. Further, the EC50 in [29] and in assay [30] was > 32 µM (inactive) each time.
